Assay results as given in patent US6979747B2, “Antioxidants, preparation processes and their uses” (Centre National de la Recherche Scientifique (CNRS), priority 1999, dated 2005).

Tests used:
MDMs = test: Cytotoxicity with respect to MDMs (neutral red); type: cell-based, human; details: MDMs
Experimental: These tests are carried out systematically in parallel with the evaluation of the antiviral activity. In view of the oxidation/reduction capacity of the molecules tested, the test with the tetrazolium salt, which measures the activity of mitochondrial dehydrogenases, cannot be used.
Neutral red (NR) is a vital dye which makes it possible to measure the viability of adherent cells, such as MDMs. 600 μl of culture supernatant are removed and replaced with 400 μl of an NR solution (0.001% m/v in phosphate buffer, PBS, Boehringer Mannheim), filtered at 0.45 μm. The cells were incubated for 1 h at 37° C. and are subsequently washed (2×1 ml of PBS). The cells are then lysed at −20° C. with 200 μl of a 50% ethanol mixture comprising 1% of glacial acetic acid. The OD is measured twice with 100 μl of solution using a spectrophotometer.

TNF-α = test: Synthesis of TNF-α in MDMs stimulated with LPS and IFN-γ; type: cell-based, human; details: MDMs stimulated with LPS (1 μg/ml) and IFN-γ (100 IU/ml)
Experimental: The synthesis of tumor necrosis factor (TNF-α) was […] in the MDM culture supernatants using the calorimetric kit sold by Cayman.
The compound I-152 and its derivatives are prepared extemporaneously by being dissolved in dimethyl sulfoxide (DMSO) at the concentration of 100 mM. They are subsequently stored at −20° C. after having been diluted 10 fold in phosphate buffer (PBS).
Tumor necrosis factor (TNF-α), like the oxygen-comprising or nitrogen-comprising radical components, plays a major role in the apoptotic processes associated with infection the HIV. Furthermore, the radical components can promote the synthesis of this proinflammatory cytokine. For this reason, the effects of I-152 in decreasing the synthesis of TNF-α were thus looked for in MDMs stimulated by a bacterial lipopolysaccharide and interferon (IFN-γ).

## CC(=O)N[C@@H](CS)C(=O)NCCSC(C)=O [I-152, N-(N-acetyl-L-cysteinyl)-S-acetylcysteamine]
MDMs; 500 μM (10 times the 50% effective dose)
  cytotoxicity (in words): not cytotoxic
MDMs; antiviral doses
  cytotoxicity at antiviral doses (in words): not cytotoxic
TNF-α
  synthesis of TNF-α (in words): inhibits the synthesis of TNF-α
PBLs
  cytotoxicity (in words): not cytotoxic
